pKd: −log10 of the molar value. *1 amine or outer side, *2 acyl side, *3 side chain or, on linkers, in order; H or OH if unused. Where a SMILES comes first, the peptide text is derived from it. The star is where a group is joined. X1 = O=C(CCCC[C@@H]1SC[C@@H]2NC(=O)N[C@@H]21)NCCCOCCOCCOCCCN*; Suc = O=C(CCC(=O)[*:2])[*:1]
What was measured:
APBA3-1 = assay: Holdup assay, APBA3-1; assay type: binding, human
FRMPD2-2 = target: T1, FRMPD2-2 (Homo sapiens, UniProt Q68DX3); assay: Holdup assay, FRMPD2-2; assay type: binding
T1 sequence (Q68DX3 1-1309): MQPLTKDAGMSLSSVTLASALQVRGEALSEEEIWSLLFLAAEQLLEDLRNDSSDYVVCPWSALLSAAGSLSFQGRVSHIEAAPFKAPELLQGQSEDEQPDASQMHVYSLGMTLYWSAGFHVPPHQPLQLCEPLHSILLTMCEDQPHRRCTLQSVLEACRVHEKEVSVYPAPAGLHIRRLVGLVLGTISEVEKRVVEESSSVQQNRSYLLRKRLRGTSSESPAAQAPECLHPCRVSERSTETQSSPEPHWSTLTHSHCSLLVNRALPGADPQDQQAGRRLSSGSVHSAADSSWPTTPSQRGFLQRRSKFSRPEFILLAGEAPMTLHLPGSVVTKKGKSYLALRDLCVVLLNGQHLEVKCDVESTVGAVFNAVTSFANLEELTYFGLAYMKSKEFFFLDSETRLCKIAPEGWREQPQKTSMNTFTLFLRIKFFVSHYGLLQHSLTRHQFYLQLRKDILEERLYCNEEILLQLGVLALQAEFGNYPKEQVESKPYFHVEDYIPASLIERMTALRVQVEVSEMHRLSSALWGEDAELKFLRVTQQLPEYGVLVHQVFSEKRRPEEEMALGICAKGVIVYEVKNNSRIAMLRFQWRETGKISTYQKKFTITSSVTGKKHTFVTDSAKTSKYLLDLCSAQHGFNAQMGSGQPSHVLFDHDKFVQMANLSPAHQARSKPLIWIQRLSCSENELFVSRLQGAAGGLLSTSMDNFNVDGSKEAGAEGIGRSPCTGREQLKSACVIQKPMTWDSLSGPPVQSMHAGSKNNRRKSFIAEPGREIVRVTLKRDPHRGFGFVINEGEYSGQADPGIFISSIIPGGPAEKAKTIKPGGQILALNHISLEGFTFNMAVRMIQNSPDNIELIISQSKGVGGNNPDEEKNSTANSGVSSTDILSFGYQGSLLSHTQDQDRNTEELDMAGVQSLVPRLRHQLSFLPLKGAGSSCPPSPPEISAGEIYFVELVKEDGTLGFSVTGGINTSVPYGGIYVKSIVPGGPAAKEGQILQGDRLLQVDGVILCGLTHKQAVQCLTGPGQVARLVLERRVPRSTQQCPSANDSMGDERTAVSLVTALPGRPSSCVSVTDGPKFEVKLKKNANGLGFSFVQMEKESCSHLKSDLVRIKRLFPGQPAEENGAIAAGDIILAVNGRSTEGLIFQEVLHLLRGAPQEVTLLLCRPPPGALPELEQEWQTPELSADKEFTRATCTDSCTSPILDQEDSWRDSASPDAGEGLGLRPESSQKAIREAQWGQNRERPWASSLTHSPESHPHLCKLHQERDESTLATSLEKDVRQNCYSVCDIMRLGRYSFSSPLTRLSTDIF

GORASP2-1 = GORASP2-1 (Homo sapiens, UniProt Q9H8Y8); assay: Holdup assay, GORASP2-1; assay type: binding
INADL-8 = INADL-8 (Homo sapiens, UniProt Q8NI35); assay: Holdup assay, INADL-8; assay type: binding
MAGIX-1 = assay: Holdup assay, MAGIX-1; assay type: binding, human
MAST4-1 = assay: Holdup assay, MAST4-1; assay type: binding, human
MPDZ-11 = MPDZ-11 (Homo sapiens, UniProt O75970); assay: Holdup assay, MPDZ-11; assay type: binding
Chain of MPDZ-11 (O75970 whole entry): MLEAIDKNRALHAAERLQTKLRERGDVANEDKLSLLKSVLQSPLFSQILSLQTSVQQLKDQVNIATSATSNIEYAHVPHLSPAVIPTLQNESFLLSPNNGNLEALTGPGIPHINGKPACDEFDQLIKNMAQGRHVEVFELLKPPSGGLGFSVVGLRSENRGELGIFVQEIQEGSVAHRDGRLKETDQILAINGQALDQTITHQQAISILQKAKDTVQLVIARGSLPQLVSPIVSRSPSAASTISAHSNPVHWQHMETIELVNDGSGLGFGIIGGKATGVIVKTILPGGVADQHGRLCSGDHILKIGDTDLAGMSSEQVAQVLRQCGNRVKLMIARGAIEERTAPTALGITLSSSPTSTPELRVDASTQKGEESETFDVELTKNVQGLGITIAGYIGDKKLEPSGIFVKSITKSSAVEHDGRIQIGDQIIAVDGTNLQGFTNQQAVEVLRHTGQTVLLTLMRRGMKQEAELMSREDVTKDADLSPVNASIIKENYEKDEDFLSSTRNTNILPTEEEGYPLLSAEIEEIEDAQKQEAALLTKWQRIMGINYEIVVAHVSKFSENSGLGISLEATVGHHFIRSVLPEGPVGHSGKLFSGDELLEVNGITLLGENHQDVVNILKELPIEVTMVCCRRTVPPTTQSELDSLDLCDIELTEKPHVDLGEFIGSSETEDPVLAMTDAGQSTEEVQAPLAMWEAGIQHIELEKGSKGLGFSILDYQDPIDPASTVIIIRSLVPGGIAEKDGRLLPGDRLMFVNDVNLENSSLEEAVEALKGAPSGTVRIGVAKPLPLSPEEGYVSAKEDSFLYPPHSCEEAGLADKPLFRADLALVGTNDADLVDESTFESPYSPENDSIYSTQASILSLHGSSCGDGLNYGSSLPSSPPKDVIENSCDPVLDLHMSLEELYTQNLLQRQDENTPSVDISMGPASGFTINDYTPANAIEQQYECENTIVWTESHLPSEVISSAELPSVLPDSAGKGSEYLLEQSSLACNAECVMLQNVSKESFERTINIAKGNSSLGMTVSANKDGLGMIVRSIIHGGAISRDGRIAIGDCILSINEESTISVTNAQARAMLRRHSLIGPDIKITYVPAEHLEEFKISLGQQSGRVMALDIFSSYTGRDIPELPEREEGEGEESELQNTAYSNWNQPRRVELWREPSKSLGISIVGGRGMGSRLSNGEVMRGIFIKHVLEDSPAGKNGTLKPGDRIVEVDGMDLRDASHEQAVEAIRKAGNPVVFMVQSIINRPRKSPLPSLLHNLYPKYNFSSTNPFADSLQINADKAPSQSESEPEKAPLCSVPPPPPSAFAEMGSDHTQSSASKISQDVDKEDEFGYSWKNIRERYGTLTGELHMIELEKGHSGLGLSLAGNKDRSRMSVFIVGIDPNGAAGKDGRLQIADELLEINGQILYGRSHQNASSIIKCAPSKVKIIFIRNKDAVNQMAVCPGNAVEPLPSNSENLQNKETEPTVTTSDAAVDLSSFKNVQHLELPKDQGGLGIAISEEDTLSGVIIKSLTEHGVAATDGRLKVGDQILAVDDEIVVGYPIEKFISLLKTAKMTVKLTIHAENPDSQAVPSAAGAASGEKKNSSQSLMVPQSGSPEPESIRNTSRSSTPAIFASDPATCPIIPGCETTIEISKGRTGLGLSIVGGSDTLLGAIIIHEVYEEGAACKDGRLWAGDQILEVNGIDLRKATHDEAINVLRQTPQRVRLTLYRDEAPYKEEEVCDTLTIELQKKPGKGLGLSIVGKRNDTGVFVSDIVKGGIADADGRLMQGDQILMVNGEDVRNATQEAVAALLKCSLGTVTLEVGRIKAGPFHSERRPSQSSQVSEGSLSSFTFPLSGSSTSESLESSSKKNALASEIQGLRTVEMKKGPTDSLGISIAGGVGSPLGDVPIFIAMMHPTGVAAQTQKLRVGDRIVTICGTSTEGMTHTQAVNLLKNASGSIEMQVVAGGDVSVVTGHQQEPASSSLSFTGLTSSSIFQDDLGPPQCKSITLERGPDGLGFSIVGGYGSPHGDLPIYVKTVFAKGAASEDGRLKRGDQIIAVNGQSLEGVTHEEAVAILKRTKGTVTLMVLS

Chain of INADL-8 (Q8NI35 whole entry): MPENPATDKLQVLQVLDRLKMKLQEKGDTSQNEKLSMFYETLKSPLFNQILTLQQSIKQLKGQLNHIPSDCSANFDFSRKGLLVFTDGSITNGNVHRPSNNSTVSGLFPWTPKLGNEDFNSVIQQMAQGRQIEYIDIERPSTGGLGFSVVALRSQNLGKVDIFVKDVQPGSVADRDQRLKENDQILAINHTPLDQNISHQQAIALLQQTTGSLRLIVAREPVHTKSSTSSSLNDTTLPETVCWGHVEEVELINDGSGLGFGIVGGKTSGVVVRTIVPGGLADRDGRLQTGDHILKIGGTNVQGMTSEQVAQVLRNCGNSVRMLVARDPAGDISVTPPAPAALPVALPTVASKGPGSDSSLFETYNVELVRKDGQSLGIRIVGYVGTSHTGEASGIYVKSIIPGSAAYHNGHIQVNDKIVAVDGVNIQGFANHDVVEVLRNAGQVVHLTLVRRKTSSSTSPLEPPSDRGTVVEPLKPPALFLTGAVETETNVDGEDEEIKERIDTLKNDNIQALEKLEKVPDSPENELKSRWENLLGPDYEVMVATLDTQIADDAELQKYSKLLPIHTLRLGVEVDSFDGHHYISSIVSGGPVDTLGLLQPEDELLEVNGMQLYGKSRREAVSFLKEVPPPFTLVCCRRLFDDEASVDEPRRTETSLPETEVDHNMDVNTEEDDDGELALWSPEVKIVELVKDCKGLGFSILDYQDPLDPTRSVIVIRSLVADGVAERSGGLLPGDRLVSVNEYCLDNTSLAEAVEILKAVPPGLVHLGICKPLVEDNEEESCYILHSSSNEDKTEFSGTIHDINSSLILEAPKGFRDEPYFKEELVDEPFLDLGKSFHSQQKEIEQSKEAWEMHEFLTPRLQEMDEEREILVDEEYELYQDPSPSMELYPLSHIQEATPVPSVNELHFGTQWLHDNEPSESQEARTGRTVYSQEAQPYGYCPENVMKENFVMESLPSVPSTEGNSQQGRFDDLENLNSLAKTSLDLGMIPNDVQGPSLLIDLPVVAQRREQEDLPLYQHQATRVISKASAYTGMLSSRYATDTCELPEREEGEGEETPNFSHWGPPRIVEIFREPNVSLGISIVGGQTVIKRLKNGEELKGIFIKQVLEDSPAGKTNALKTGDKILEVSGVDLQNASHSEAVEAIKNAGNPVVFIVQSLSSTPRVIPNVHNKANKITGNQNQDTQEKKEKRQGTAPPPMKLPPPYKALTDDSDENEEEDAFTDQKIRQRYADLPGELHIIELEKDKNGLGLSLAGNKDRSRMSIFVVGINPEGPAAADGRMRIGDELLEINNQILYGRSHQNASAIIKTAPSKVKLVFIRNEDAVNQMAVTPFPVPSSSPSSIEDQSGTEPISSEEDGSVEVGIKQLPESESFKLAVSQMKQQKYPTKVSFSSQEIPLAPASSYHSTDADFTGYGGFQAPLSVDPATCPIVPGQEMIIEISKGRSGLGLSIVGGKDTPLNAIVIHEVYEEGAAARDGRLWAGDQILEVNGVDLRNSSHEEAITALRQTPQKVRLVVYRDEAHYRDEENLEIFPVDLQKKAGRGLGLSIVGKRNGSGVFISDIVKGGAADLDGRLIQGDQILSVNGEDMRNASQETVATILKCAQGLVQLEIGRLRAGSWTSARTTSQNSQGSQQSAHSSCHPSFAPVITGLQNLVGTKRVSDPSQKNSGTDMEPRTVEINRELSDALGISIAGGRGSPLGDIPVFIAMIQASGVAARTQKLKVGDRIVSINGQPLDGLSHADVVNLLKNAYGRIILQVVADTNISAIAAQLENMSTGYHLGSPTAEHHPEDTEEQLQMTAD

## CC[C@H](C)[C@H](NC(=O)[C@H](CCC(N)=O)NC(=O)[C@@H](NC(=O)[C@H](Cc1c[nH]cn1)NC(=O)[C@H](CCC(N)=O)NC(=O)[C@H](CC(=O)O)NC(=O)[C@H](CCC(=O)O)NC(=O)[C@H](CC(=O)O)NC(=O)CCC(=O)NCCCOCCOCCOCCCNC(=O)CCCC[C@@H]1SC[C@@H]2NC(=O)N[C@@H]21)[C@@H](C)O)C(=O)N[C@H](C(=O)N[C@@H](CCCCNC(C)=O)C(=O)N[C@H](C(=O)O)C(C)C)[C@@H](C)O [PTEN_Ac]
APBA3-1
  BI: -0.113
  LogKD: 3.605
FRMPD2-2
  BI: 0.574
  pKd: 4.72
GORASP2-1
  pKd: 4.44
GORASP2-1; GORASP2-1
  BI: 0.418
INADL-8
  BI: 0.509
  pKd: 4.60
MAGIX-1
  BI: -0.034
  LogKD: 3.605
MAST4-1
  BI: -0.003
  LogKD: 3.605
MPDZ-11
  BI: 0.145

## CC[C@H](C)[C@H](NC(=O)[C@H](CCC(N)=O)NC(=O)[C@@H](NC(=O)[C@H](Cc1c[nH]cn1)NC(=O)[C@H](CCC(N)=O)NC(=O)[C@H](CC(=O)O)NC(=O)[C@H](CCC(=O)O)NC(=O)[C@H](CC(=O)O)NC(=O)CCC(=O)NCCCOCCOCCOCCCNC(=O)CCCC[C@@H]1SC[C@@H]2NC(=O)N[C@@H]21)[C@@H](C)O)C(=O)N[C@H](C(=O)N[C@@H](CCCCN)C(=O)N[C@H](C(=O)O)C(C)C)[C@@H](C)O [PTEN_11]
APBA3-1
  BI: -0.03
  LogKD: 3.519
FRMPD2-2
  BI: 0.291
  pKd: 4.10
GORASP2-1
  pKd: 4.32
GORASP2-1; GORASP2-1
  BI: 0.403
INADL-8
  BI: 0.388
  pKd: 4.29
MAGIX-1
  BI: 0.014
  LogKD: 3.519
MAST4-1
  BI: -0.08
  LogKD: 3.519
MPDZ-11
  BI: 0.021
  LogKD: 3.519

## CC[C@H](C)[C@H](NC(=O)[C@H](CCC(N)=O)NC(=O)[C@@H](NC(=O)[C@H](Cc1c[nH]cn1)NC(=O)[C@H](CCC(N)=O)NC(=O)[C@H](CC(=O)O)NC(=O)[C@H](CCC(=O)O)NC(=O)[C@H](CC(=O)O)NC(=O)[C@H](Cc1ccccc1)NC(=O)[C@@H]1CCCN1C(=O)CCC(=O)NCCCOCCOCCOCCCNC(=O)CCCC[C@@H]1SC[C@@H]2NC(=O)N[C@@H]21)[C@@H](C)O)C(=O)N[C@H](C(=O)N[C@@H](CCCCN)C(=O)N[C@H](C(=O)O)C(C)C)[C@@H](C)O [PTEN_13] ({X1-Suc}-PFDEDQHTQITKV-OH)
APBA3-1
  BI: 0.015
FRMPD2-2
  BI: 0.254
  pKd: 4.33
GORASP2-1; GORASP2-1
  BI: 0.092
  LogKD: 3.826
INADL-8
  BI: 0.247
  pKd: 4.31
MAGIX-1
  BI: 0.049
MAST4-1
  BI: 0.058
MPDZ-11
  BI: 0.012
  LogKD: 3.826

## CC[C@H](C)[C@H](NC(=O)[C@H](CCC(N)=O)NC(=O)[C@@H](NC(=O)[C@H](Cc1c[nH]cn1)NC(=O)[C@H](CCC(N)=O)NC(=O)[C@H](CC(=O)O)NC(=O)[C@H](CCC(=O)O)NC(=O)[C@H](CC(=O)O)NC(=O)CCC(=O)NCCCOCCOCCOCCCNC(=O)CCCC[C@@H]1SC[C@@H]2NC(=O)N[C@@H]21)[C@@H](C)O)C(=O)N[C@H](C(=O)N[C@@H](CCCNC(=N)N)C(=O)N[C@H](C(=O)O)C(C)C)[C@@H](C)O [PTEN_KR] ({X1-Suc}-DEDQHTQITRV-OH)
APBA3-1
  BI: -0.056
  LogKD: 3.655
FRMPD2-2
  BI: 0.295
  pKd: 4.24
GORASP2-1
  pKd: 4.80
GORASP2-1; GORASP2-1
  BI: 0.586
INADL-8
  BI: 0.532
  pKd: 4.70
MAGIX-1
  BI: 0.018
  LogKD: 3.655
MAST4-1
  BI: -0.027
  LogKD: 3.655
MPDZ-11
  BI: 0.02
  LogKD: 3.655

From article PMC7774954, “Interactomic affinity profiling by holdup assay: Acetylation and distal residues impact the PDZome-binding specificity of PTEN phosphatase” (PLoS ONE, 2020)
